This note sets out measurements from patent US12552796B2, “EED inhibitor, and preparation method therefor and use thereof” (SHANGHAITECH UNIVERSITY, priority 2019, dated 2026).

Where two headings read alike, the source gives them in different places.

The subject of data set [1] is cellular H3K27 methylation. In words: Cellular H3K27 methylation assay (Western blot of H3K27me3 in HeLa cells). Type of data set: cell-based. The conditions noted are these: Homo sapiens, 72 h, read-out: PD IC50. On the technique in general: Immunoblotting shows a protein as a band on a membrane.
A short description of data set [2]: Pharmacokinetic study in rats. The format is in vivo, SD rats. The conditions noted are these: rat; for AUC(0-inf) / Cmax / Tmax / clearance / half-life / MRT inf: male, SD, plasma; for MRT inf: read-out: MRT0-∞. The procedure: Six SPF SD rats, male, weighing 180-220 g, were randomly divided into 2 groups with 3 rats in each group. The compounds of the present disclosure were administered by oral gavage (PO) and intravenous injection (IV), respectively, and the assay compounds were formulated with a vehicle (5% DMSO+10% Solutol+85% pH 4.65 Acetate buffer).
Dosage: 1 mg/kg for intravenous injection and 2 mg/kg for oral administration.
Dosing volume: 5 mL/kg for intravenous injection and 10 mL/kg for oral administration.
The oral administration group was fasted overnight (10-14 h) before the assay, and drank water freely. After 4 hours of administration, they were fed uniformly. They were weighed before administration, and the dosage was calculated according to the body weight.
Intravenous administration: 0.083, 0.25, 0.5, 1, 2, 4, 6, 8, 10 and 24 h after administration;
Oral gavage administration: 0.25, 0.5, 1, 2, 4, 6, 8, 10, 12 and 24 h after administration;
Blood was collected from the jugular vein of rats at the above set time points, about 0.2 mL each time. The blood was anticoagulated with heparin sodium, placed on ice after collection, and centrifuged within 1 hour to separate the plasma (centrifugation conditions: 6800 g, 6 minutes, 2-8° C.). Plasma samples were stored in a −80° C. freezer prior to analysis.
The concentration of each compound in rat plasma was determined by LC/MS/MS method.
Through the plasma drug concentration data at different time points, pharmacokinetic parameters were calculated using Phoenix WinNonlin 7.0, thereby providing parameters such as AUC0-t, AUC0-∞, MRT0-∞, Cmax, Tmax, and T1/2 and mean and standard deviation thereof.

The test system of data set [3] is WSU-DLCL2 cells. The experiment in a line: Cell proliferation assay, WSU-DLCL2. Type of data set: cell-based. The conditions noted are these: Homo sapiens. The procedure: (§1) Human B-cell non-Hodgkin's lymphoma cells WSU-DLCL2, Karpas422 and Pfeiffer were cultured in cell culture flasks in a sterile incubator with 95% relative humidity and 5% CO2 at 37° C. The medium was RPMI-1640 (Gibco, product No. 31800022) containing 15% fetal bovine serum (FBS, Gibco, product No. 10099141) and 0.1% penicillin/streptomycin solution (P/S). In order to assay the effects of compounds on cell proliferation, cells in exponential growth phase were seeded into a 12-well plate (Nunc, product No. 150628) with 1 mL of medium per well, wherein WSU-DLCL2 and Karpas422 were seeded at a density of 1×10^5 cells/well, and Pfeiffer was seeded at a density of 2×10^5 cells/well. At the same time, different concentrations of compounds were added to the wells that had seeded with cells (6 concentrations were set for each compound at 3-fold serial dilution), and the final concentration of DMSO was 0.1%. After that, the number of viable cells was determined by Vi-CELL (Beckman Coulter) for WSU-DLCL2 and Pfeiffer every 3 days, and for Karpas422 on days 4, 7, and 11, respectively. The cells counted each time were seeded into a new 12-well plate at the same density, and supplemented with fresh medium to 1 mL. Different concentrations of compounds were added at the same time. WSU-DLCL2 and Pfeiffer were cultured to the 9th day, and Karpas422 was cultured to the 14th day. Cell data were collected uniformly, and analyzed with GraphPad prisim5. Dose curves were fitted, and IC50 values of the assay compounds were obtained.

In data set [4] the test system is Karpas422 cells. In words: Cell proliferation assay, Karpas422. The format is cell-based. The conditions noted are these: Homo sapiens. The procedure:
as §1

In data set [5] the test system is Pfeiffer cells. In words: Cell proliferation assay, Pfeiffer. Type of data set: cell-based. The conditions noted are these: Homo sapiens, cultured to the 9th day, read-out: Anti-proliferation IC50. The procedure: as §1
Setting [6] is: HeLa cells, 3 days, H3K27me3 level by Western blot.
Where [7] appears, read: WSUDLCL2, WSU-DLCL2 cells, cultured to the 9th day, read-out: Anti-proliferation IC50.
Setting [8] is: KARPAS-422, Karpas422 cells, cultured to the 14th day, read-out: Anti-proliferation IC50.

What is called AUC(0-inf) is the area under the concentration-time curve extrapolated to infinity. One may read the Cmax as the peak of the concentration-time curve. The term Tmax denotes the time from dosing to the highest level. The term clearance denotes the volume of plasma or blood freed of the substance per unit of time. Higher therefore signals efficient removal. The term half-life denotes the time needed for the level to fall by half in the phase considered. As to `O=C1CCCN1c1cnc(NCc2c(F)ccc3c2CCO3)n2cnnc12` [HJM-067], in data set [1] (HeLa), the IC50 stood at 21.1 nM. Further, in data set [2] (IV, 1 mg/kg), the AUC(0-inf) worked out at 695 ng·h/mL, the concentration peaked (Cmax) at 946 ng/mL, the Tmax was determined as 0.08 h and the clearance was 24.1 mL/min/kg. Besides, in data set [2] (IV, 1 mg/kg), the half-life was 3 h and the MRT inf turned out to be 0.8 h. Besides, in data set [2] (PO, 2 mg/kg), the AUC(0-inf) was found to be 846 ng·h/mL, the Cmax was 306 ng/mL, the Tmax turned out to be 0.83 h and the half-life is 3.03 h. In addition, in data set [2] (PO, 2 mg/kg), the MRT inf was 2.7 h and the F is given as 60.72%. Also, the IC50 in data set [3] (WSUDLCL2, read-out: Anti-proliferation IC50) worked out at 29.4 nM. The IC50 in data set [4] (KARPAS-422, read-out: Anti-proliferation IC50) came to 51 nM.
Turning to `CCN(C(=O)C1CC1)c1cnc(NCc2c(F)ccc3c2CCO3)n2cnnc12` [HJM-079], the IC50 in data set [1] (setting [6]) was found to be 15.3 nM. Also, in data set [2] (IV, 1 mg/kg), the AUC(0-inf) stood at 857 ng·h/mL, the Cmax is 750 ng/mL, the Tmax was 0.08 h and the clearance came out at 19.5 mL/min/kg. In data set [2] (IV, 1 mg/kg), the half-life was 0.92 h and the MRT inf amounted to 1.1 h. In data set [2] (PO, 2 mg/kg), the AUC(0-inf) came to 706 ng·h/mL, the highest level (Cmax) was 222 ng/mL, the Tmax was 0.42 h and the half-life was 1.72 h. In addition, in data set [2] (PO, 2 mg/kg), the MRT inf came to 2.94 h and the F amounted to 40.87%. For the same compound, the IC50 in data set [3] (setting [7]) stood at 36.8 nM.
On to `CC1(COc2cnc(NCc3c(F)ccc4c3CCO4)n3cnnc23)COC1` [HJM-105], for which, in data set [1] (setting [6]), the IC50 came to 29.4 nM. Besides, in data set [2] (IV, 1 mg/kg), the AUC(0-inf) was 1910 ng·h/mL, the highest level (Cmax) was 1600 ng/mL, the Tmax is 0.08 h and the clearance amounted to 8.83 mL/min/kg. Moreover, in data set [2] (IV, 1 mg/kg), the half-life was 1.82 h and the MRT inf came to 1.56 h. In data set [2] (PO, 2 mg/kg), the AUC(0-inf) worked out at 1790 ng·h/mL, the Cmax turned out to be 342 ng/mL, the Tmax turned out to be 2.83 h and the half-life was 1.41 h. Moreover, in data set [2] (PO, 2 mg/kg), the MRT inf was 3.29 h and the F came to 47.22%. Besides, the IC50 in data set [3] (setting [7]) was 35.4 nM.
Regarding `CS(=O)(=O)c1ccc(-c2cnc(NCc3ccco3)n3cnnc23)cc1` [EED226, reference compound], the IC50 in data set [1] (setting [6]) is 220 nM; in data set [3] (setting [7]), 131 nM; in data set [4] (setting [8]), 123 nM.
On to `O=C(Nc1cnc(NCc2c(F)ccc3c2CCO3)n2cnnc12)C1CC1` [HJM-030], for which the IC50 in data set [1] (setting [6]) was determined as 26.7 nM. Also, in data set [2] (IV, 1 mg/kg), the AUC(0-inf) amounted to 1230 ng·h/mL, the Cmax turned out to be 1500 ng/mL, the Tmax was 0.08 h and the clearance was 13.6 mL/min/kg. In data set [2] (IV, 1 mg/kg), the half-life was 1.7 h and the MRT inf was 1.02 h. Besides, in data set [2] (PO, 2 mg/kg), the total exposure AUC(0-inf) worked out at 1450 ng·h/mL, the highest level (Cmax) was 394 ng/mL, the Tmax came to 0.42 h and the half-life was 1.32 h. Besides, in data set [2] (PO, 2 mg/kg), the MRT inf was found to be 2.93 h and the F worked out at 58.53%. Also, the IC50 in data set [3] (setting [7]) was 39.6 nM. The IC50 in data set [4] (setting [8]) was found to be 42.1 nM.
With `Fc1ccc2c(c1CNc1ncc(OCC3CCOC3)c3nncn13)CCO2` (centres unmarked) [HJM-102], in data set [1] (setting [6]), the IC50 is 32.7 nM. In data set [2] (IV, 1 mg/kg), the AUC(0-inf) worked out at 1140 ng·h/mL, the Cmax amounted to 1180 ng/mL, the Tmax came to 0.08 h and the clearance was 14.8 mL/min/kg. Also, in data set [2] (IV, 1 mg/kg), the half-life was 1.98 h and the MRT inf was found to be 1.4 h. Besides, in data set [2] (PO, 2 mg/kg), the AUC(0-inf) is 1890 ng·h/mL, the Cmax came to 369 ng/mL, the time of peak concentration (Tmax) was 1.5 h and the half-life was 1.68 h. Besides, in data set [2] (PO, 2 mg/kg), the MRT inf was found to be 3.55 h and the F was determined as 82.62%. Besides, the IC50 in data set [3] (setting [7]) was determined as 25.1 nM. The IC50 in data set [4] (setting [8]) worked out at 99.3 nM. The IC50 in data set [5] turned out to be 47.4 nM.
